What was measured:
[1] = system: Ramos cells; assay: ROS generation, carboxy-H2DCFDA probe, flow cytometry; assay type: cell-based
Method: In these experiments, we monitored the production of ROS using the cell permeable Carboxy-H2DCFDA probe. When this probe is oxidized by ROS, it emits a green fluorescence that can be detected using flow cytometry or fluorescent microscopy. […] 25 μM carboxy-H2DCFDA (Invitrogen. C400) working solution was added to cover the cells, and the cells were incubate for 30 minutes at 37° C., protected from light. The cells were gently washed three times in warm HBSS/Ca/Mg. ROS levels, as determined by fluorescence intensity, were determined by flow cytometry (excitation at 495 nm, emission at 529 nm).
Tiron is a direct scavenger of ROS and is a potent inhibitor of oxidative stress.
Ramos cells were treated with elesclomol (500 nM) for the indicated times then washed gently once with warm HBSS/Ca/Mg (Invitrogen Carlsbad, Calif. Cat# 14025). 25 μM carboxy-H2DCFDA (Invitrogen Cat #C400) working solution was added to cover the cells and they were incubated for 30 minutes at 37° C., protected from light. The cells were gently washed three times in warm HBSS/Ca/Mg. ROS levels (fluorescence intensity) were determined by flow cytometry (excitation at 495 nm, emission at 529 nm) using a Becton Dickinson FACSCalibur equipped with CellQuest Pro software. Data is plotted as percent of elesclomol-treated cells with DCFDA fluorescence relative to DMSO (control) treated cells (see FIG. 49).

[2] = system: human breast tumor MDA-MB-435; details: Paclitaxel 5 mg/kg + Compound 1 25 or 50 mg/kg, IV, 3 times a week for 3 weeks, nude mice
Method: The in vivo anti-cancer enhancing effect of novel compounds was assessed in tumor bearing mice using the tumor growth inhibition assay. Tumor cells were implanted by injection of a tumor cell suspension subcutaneously in the flank of a mouse. […] Tumors were measured two times a week. During the course of this assay, animals were monitored daily for signs of toxicity including body weight loss.

[3] = system: p38 kinase; assay: p38 phosphorylation, Western blot, MDA-MB-435 cells; assay type: cell-based, human; details: 10, 50, 100, 500 or 1000 nM, 4 hours
Method: (§1) After treatment the cells were lysized and used for Western blot analysis.
Samples were run on a SDS-PAGE gel and proteins were transferred onto a nitrocellulose membrane by a semi-dry transfer. Nitrocellulose was blocked with 5% skim milk in TBS with 0.5% Tween at room temperature for 1 hour and then probed with anti-phospho-p38 (Cell Signaling, #9216) antibody. The nitrocellulose was then probed with secondary antibodies, HRP-conjugated goat anti-rabbit IgG and HRP-conjugated horse anti-mouse IgG (#7074, #7076, Cell Signaling). LumiGLO reagent, 20× Peroxide (#7003, Cell Signaling) was used to visualize gel (see FIG. 35).

[4] = system: Hsp70; assay: Hsp70 secretion by cultured tumor cells (ELISA); assay type: cell-based, human; details: MDA-MB-435, 0.04 μM or 0.2 μM, 72 h
Method: MDA-MB-435 tumor cells were seeded at 15,000 cells/150 μl/well of 48-well plate and cultured in DMEM supplemented with 10% fetal bovine serum. The compounds were dissolved in dimethyl sulfoxide (DMSO) then a solution was prepared containing 0.04 μM or a 0.2 μM in 25% DMSO and 75% culture medium. […] The medium was then separated from the cells and Hsp70 was measured by ELISA kit from Stressgen. Cell viability was checked by CCK-8 cell count assay (Dojindo) at 88 hr.

[5] = system: MDA-MB-435 cells; assay: Cell viability (Cell Counting Kit-8); assay type: cell-based, human; details: Homo sapiens, MDA-MB-435; 500 nM, 72 hours post-drug treatment; read-out: reduction of cell viability
Method: The cells were further cultured at 37° C. for 72 hours and cell viability was measured with Cell Counting Kit-8 (Dojindo Laboratories, Cat# CK04).

[6] = human, in vivo
[7] = system: MAPKAPK-2; assay: MAPKAPK-2 phosphorylation, Western blot, CEM and CV-1 cells; assay type: cell-based; details: CEM and CV-1 tumor cells, 0.1 or 0.5 μM
Method: as §1
Samples were run on a SDS-PAGE gel and proteins were transferred onto a nitrocellulose membrane by a semi-dry transfer. Nitrocellulose was blocked with 5% skim milk in TBS with 0.5% Tween at room temperature for 1 hour and then probed with anti-p-MAPKAPK-2 (Thr334) (#3041, Cell Signaling) antibody. Tubulin was used as a normalization control and was probed with Anti-Tubulin (T9026, Sigma) antibody.

[8] = system: Hsp70; assay: Cell surface expression of Hsp70, CEM cells (immunofluorescence); assay type: cell-based; details: 3 hrs
Method: After treatment, cells were rinsed one time in PBS then fixed in 2% Paraformaldehyde at room temperature for 20 minutes. Slides with the fixed cells were rinsed with PBS two times. Primary antibody mouse monoclonal anti-Hsp70 (Stressgen SPA-8 10) was diluted 1:100 in PBS and the slides were incubated 1 hour at 37° C. The slides were rinsed two times with PBS. Secondary antibody anti-mouse AlexaFluor 488 (Molecular Probes A-11001) was diluted 1:500 in PBS and the slides were incubated 30 min at 37° C. The slides were rinsed two times in PBS. DAPI (Molecular Probes D-3571) were diluted 1:10,000 in PBS and the slides were incubated at room temperature in dark for 5 min. The slides were rinsed two times in PBS, then once in deionized water and left to dry in dark until almost completely dry. Coverslips were mounted with Prolong Anti-fade Mounting Media (Molecular Probes P-748 1). The images were captured with a monochrome CCD camera SenSys (see FIGS. 27A-D and 28A-D) or by confocal microscopy (see FIG. 29A-E). In FIGS. 27A-D and 28A-D, the bright pink color on the surface of the MCF-7 cells (FIG. 27A-D) or CEM cells (FIG. 28A-D) indicates Hsp70 on the surface of the cells. In FIG. 29A-E the bright green color on the surface of the cell indicates Hsp70 on the surface of the HT29 cells.

[9] = system: Hsp70; assay: Phase I trial: plasma Hsp70 (sandwich ELISA); assay type: in vivo, human; details: co-administered with paclitaxel
Method: Plasma Hsp70 was measured by a sandwich ELISA kit (Stressgen Bioreagents Victoria, British Columbia, CANADA) according to a modified protocol in house. In brief, Hsp70 in plasma specimens and serial concentrations of Hsp70 standard were captured onto 96-well plate on which anti-Hsp70 antibody was coated. Then captured Hsp70 was detected with a biotinylated anti-Hsp70 antibody followed by incubation with europium-conjugated streptavidin. After each incubation, unbound materials were removed by washing. Finally, antibody-Hsp70 complex was measured by time resolved fluorometry of europium. Concentration of Hsp70 was calculated from a standard curve.

CN(NC(=O)CC(=O)NN(C)C(=S)c1ccccc1)C(=S)c1ccccc1 [Compound 1]
generation of ROS ([1]; 0.5 μM, 24 hours): induced the generation of ROS | earliest time at which induction of ROS was observed ([1]; Ramos cells, time course): 3 h | anti-tumor activity (tumor volume) [2]: significantly enhanced anti-tumor activity of paclitaxel | phosphorylation and activation of p38 kinase [3]: induces the phosphorylation and activation of p38 kinase in a dose dependent manner | secretion of Hsp70 [4]: increased the secretion of Hsp70 by the cells in a dose dependent manner | cytotoxicity at 0.5 µM [5]: ~90% | serious side effects [6]: No serious side effects specifically attributable to Compound 1 were observed | phosphorylation of MAPKAPK-2 [7]: induces the phosphorylation of MAPKAPK-2 | Hsp70 on the surface of cells ([8]; 0.05 μM): bright pink fluorescent color on the surface of the cells indicating Hsp70 | Hsp70 on the surface of cells ([8]; 0.1 μM): brighter than when cells were treated with 0.05 μM of Compound 1 | Hsp70 on the surface of cells ([8]; 0.5 μM): brighter than when cells were treated with 0.05 μM of Compound 1 but about the same as cells treated with 0.1 KIM | induction of Hsp70 protein in plasma [9]: dose dependent
